The subject of series [1] is L. cuprina diflubenzuron-resistant strain (Emmaville). Nature of the series: In vitro first stage larvae exposure, prevention of adult fly emergence, diflubenzuron-resistant strain. More on the design: species or system Lucilia cuprina. The source says: Dicyclanil and diflubenzuron belong to different chemical families but are loosely grouped into a large class commonly known as “insect growth regulators”. Importantly both compounds interfere differently with the various development stages of insects. […] The invention makes use of the fact that dicyclanil will control the strains of blowfly that diflubenzuron is ineffective against.
Fly larvae belonging to a diflubenzuron-susceptible strain (LS) and a diflubenzuron-resistant strain (Emmaville) of L. cuprina are tested. First stage larvae are exposed to differing concentrations (aimed to achieve 0-100% prevention of adult fly emergence) of dicyclanil, diflubenzuron or a combination of the two actives (at the ratio used in the invention). The number of larvae forming pupae and the number of pupae producing viable adult flies are recorded. The level of diflubenzuron resistance in the Emmaville strain prevents achieving complete inhibition of adult fly emergence with diflubenzuron. Maximum mortality is 41% at 300 mg diflubenzuron/kg. The limit of solubility of diflubenzuron precludes the testing of higher concentrations.

Series [2] in a line: Tissue residue study in sheep. To be noted: 2, 3, 4, 5, 6 or 17 weeks after treatment with the invention; none above Limit of Quantitation. It counts as in vivo. How it is done: Tissue residue studies are carried out to determine the period after treatment where the produce of treated animals cannot be used for human consumption. The proposed maximum dose rate for the invention is used in this evaluation. Sheep are treated with the invention at the commencement of the study and at pre-defined intervals thereafter, groups of sheep are humanely sacrificed and the appropriate target tissues (liver, kidney, muscle, fat) are recovered and subsequently analyzed (under Good Laboratory Practice conditions) for the presence of active ingredients (and their metabolites if necessary).
The residue definition for dicyclanil in Australia is the sum of dicyclanil and its metabolite CGA 297′107. Considering this, in the course of this study the mean maximum residue concentrations were detected at two and three weeks post-treatment.
The residue definition for diflubenzuron in Australia is expressed as only diflubenzuron. In this study there were no detectable residues in individual tissues (liver, kidney, subcutaneous fat, renal fat) from any animal above the Limit of Quantitation (0.025 mg/kg) at 2, 3, 4, 5, 6 or 17 weeks after treatment.

With `N#Cc1c(N)nc(NC2CC2)nc1N` [dicyclanil, 4,6-diamino-2-cyclopropylaminopyrimidine-5-carbonitrile], the “Emmaville strain response to dicyclanil” value in series [1] (Emmaville strain compared with LS) is recorded as “typical of a susceptible strain”.

`O=C(NC(=O)c1c(F)cccc1F)Nc1ccc(Cl)cc1` [diflubenzuron, 1-(4-chlorophenyl)-3-(2,6-difluorobenzoyl)urea]: the “diflubenzuron residues in individual tissues (liver, kidney, subcutaneous fat, renal fat)” value in series [2] was less than 0.025 mg/kg. The Maximum mortality in series [1] (Emmaville strain, 300 mg diflubenzuron/kg) came to 41%.

The values are drawn from US20050288259A1, “Composition” (priority 2002, published 2005).
